# Laboratory results published in the supplement of paper PMC10307832.
# Legend:
# Experiment in all cases: relative viability (nuclei count vs DMSO), 5 days (fraction); higher = more cells survive
# Zebularine + Pemetrexed = compound: O=c1ncccn1[C@@H]1O[C@H](CO)[C@@H](O)[C@H]1O [Zebularine] + Nc1nc2[nH]cc(CCc3ccc(C(=O)N[C@@H](CCC(=O)O)C(=O)O)cc3)c2c(=O)[nH]1 [Pemetrexed] (partner 0.2 µM)
# How it was run: (§1)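 After 5 days of treatment, lung cancer cells in 1536-well plates were fixed and stained in a single step (final 0.05% Triton X-100, 1% formaldehyde, 1 ug/ml Hoechst) and their nuclei counted on 4× images. Treatment had been applied by pin tool the day after seeding as one drug alone or as a fixed anchor-drug dose with five library-drug doses (not always all listed) in √10 steps. Relative viability is the nuclei count of treated wells divided by that of vehicle wells, and values are medians of duplicate plates.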
# Zebularine + Tozasertib = compound: O=c1ncccn1[C@@H]1O[C@H](CO)[C@@H](O)[C@H]1O [Zebularine] + Cc1cc(Nc2cc(N3CCN(C)CC3)nc(Sc3ccc(NC(=O)C4CC4)cc3)n2)n[nH]1 [Tozasertib] (partner 0.1 µM)
# How it was run: as §1
# BI-D1870 + Dasatinib = compound: CC(C)CCN1c2nc(Nc3cc(F)c(O)c(F)c3)ncc2N(C)C(=O)C1C [BI-D1870] + Cc1nc(Nc2ncc(C(=O)Nc3c(C)cccc3Cl)s2)cc(N2CCN(CCO)CC2)n1 [Dasatinib] (partner 0.075 µM)
# How it was run: as §1
# Zebularine + Bortezomib = compound: O=c1ncccn1[C@@H]1O[C@H](CO)[C@@H](O)[C@H]1O [Zebularine] + CC(C)C[C@H](NC(=O)[C@H](Cc1ccccc1)NC(=O)c1cnccn1)B(O)O [Bortezomib] (partner 0.002 µM)
# How it was run: as §1
Cell Line,relative viability (Zebularine + Pemetrexed; first compound 1 µM),relative viability (Zebularine + Pemetrexed; first compound 3.162 µM),relative viability (Zebularine + Pemetrexed; first compound 10 µM),relative viability (Zebularine + Pemetrexed; first compound 31.62 µM),relative viability (Zebularine + Pemetrexed; first compound 100 µM),relative viability (Zebularine + Tozasertib; first compound 1 µM),relative viability (Zebularine + Tozasertib; first compound 3.162 µM),relative viability (Zebularine + Tozasertib; first compound 10 µM),relative viability (Zebularine + Tozasertib; first compound 31.62 µM),relative viability (Zebularine + Tozasertib; first compound 100 µM),relative viability (BI-D1870 + Dasatinib; first compound 0.04 µM),relative viability (BI-D1870 + Dasatinib; first compound 0.1265 µM),relative viability (BI-D1870 + Dasatinib; first compound 0.4 µM),relative viability (BI-D1870 + Dasatinib; first compound 1.265 µM),relative viability (BI-D1870 + Dasatinib; first compound 4 µM),relative viability (Zebularine + Bortezomib; first compound 1 µM),relative viability (Zebularine + Bortezomib; first compound 3.162 µM),relative viability (Zebularine + Bortezomib; first compound 10 µM),relative viability (Zebularine + Bortezomib; first compound 31.62 µM),relative viability (Zebularine + Bortezomib; first compound 100 µM)
LCLC-103H,0.459,0.443,0.388,0.504,0.443,0.448,0.43,0.402,0.471,0.355,0.537,0.38,0.454,0.469,0.469,1.19,1.1,0.886,1.19,1.01
LOU-NH91,0.368,0.415,0.419,0.355,0.398,0.7,0.641,0.68,0.704,0.384,0.582,0.527,0.516,0.595,0.458,0.485,0.464,0.51,0.441,0.492
LU99A,0.182,0.236,0.162,0.134,0.146,0.296,0.276,0.239,0.261,0.159,0.753,0.51,0.512,0.467,0.425,1.39,1.08,0.638,0.421,0.199
LXF-289,0.919,0.879,0.895,0.702,0.403,0.19,0.169,0.124,0.0978,0.116,0.254,0.239,0.216,0.223,0.244,1.04,0.993,0.94,0.748,0.301
NCI-H23,0.777,0.706,,0.649,0.494,0.36,0.382,0.234,0.462,0.284,0.923,0.741,0.692,0.588,0.579,1.15,1.06,,0.918,0.783
NCI-H322M,0.595,0.565,0.501,0.635,0.59,0.494,0.486,0.372,0.47,0.465,0.236,0.27,0.234,0.234,0.283,1.19,1.29,1.06,1.17,0.824
NCI-H441,0.274,0.248,0.302,0.185,0.166,0.825,0.711,0.334,0.221,0.344,0.763,0.544,0.575,0.651,0.671,0.355,0.278,0.352,0.235,0.245
NCI-H460,0.0616,0.0545,0.08,0.076,0.0682,0.61,0.499,0.529,0.193,0.0561,0.594,0.377,0.528,0.507,0.242,1.34,1.07,0.241,0.278,0.126
NCI-H520,0.687,0.588,0.374,0.239,0.215,0.43,0.561,0.353,0.269,0.25,0.207,0.189,0.235,0.198,0.186,0.831,0.449,0.337,0.231,0.224
NCI-H596,0.478,0.513,0.428,0.42,0.494,0.847,1.1,0.618,0.958,0.845,0.633,0.475,0.597,0.684,0.564,1.06,1.1,0.725,1.23,0.986
NCI-H647,0.18,0.183,0.149,0.115,0.115,0.284,0.353,0.152,0.144,0.265,0.184,0.113,0.243,0.23,0.208,1.27,0.749,0.181,0.175,0.204
NCI-H650,0.918,1.03,0.757,0.454,0.286,0.756,0.656,0.524,0.346,0.238,0.454,0.419,0.431,0.403,0.35,0.956,0.654,0.557,0.525,0.357
NCI-H661,0.939,0.951,0.832,0.995,0.891,0.338,0.346,0.381,0.361,0.396,1.04,0.867,0.874,0.898,0.708,0.729,0.824,0.709,0.716,0.785
NCI-H838,0.259,0.267,0.234,0.221,0.17,0.251,0.304,0.239,0.216,0.163,0.342,0.244,0.314,0.274,0.243,0.994,0.727,0.598,0.801,0.298
NCI-H1355,1.04,1.02,0.802,0.623,0.303,0.56,0.516,0.484,0.328,0.34,0.886,0.726,0.767,0.838,0.674,1.3,1.2,0.844,0.493,0.335
NCI-H1437,0.322,0.335,0.276,0.295,0.275,0.44,0.381,0.254,0.397,0.304,0.46,0.343,0.413,0.394,0.285,0.595,0.474,,0.566,0.258

Cell Line,relative viability (Zebularine + Pemetrexed; first compound 1 µM),relative viability (Zebularine + Pemetrexed; first compound 3.162 µM),relative viability (Zebularine + Pemetrexed; first compound 10 µM),relative viability (Zebularine + Pemetrexed; first compound 31.62 µM),relative viability (Zebularine + Pemetrexed; first compound 100 µM),relative viability (Zebularine + Tozasertib; first compound 1 µM),relative viability (Zebularine + Tozasertib; first compound 3.162 µM),relative viability (Zebularine + Tozasertib; first compound 10 µM),relative viability (Zebularine + Tozasertib; first compound 31.62 µM),relative viability (Zebularine + Tozasertib; first compound 100 µM),relative viability (BI-D1870 + Dasatinib; first compound 0.04 µM),relative viability (BI-D1870 + Dasatinib; first compound 0.1265 µM),relative viability (BI-D1870 + Dasatinib; first compound 0.4 µM),relative viability (BI-D1870 + Dasatinib; first compound 1.265 µM),relative viability (BI-D1870 + Dasatinib; first compound 4 µM),relative viability (Zebularine + Bortezomib; first compound 1 µM),relative viability (Zebularine + Bortezomib; first compound 3.162 µM),relative viability (Zebularine + Bortezomib; first compound 10 µM),relative viability (Zebularine + Bortezomib; first compound 31.62 µM),relative viability (Zebularine + Bortezomib; first compound 100 µM)
NCI-H1650,0.381,0.35,0.387,0.523,0.33,0.509,0.308,0.325,0.361,0.341,0.266,0.393,0.32,0.281,0.273,0.226,0.191,,0.2,0.199
NCI-H1651,0.631,0.556,0.542,0.563,0.347,0.869,0.679,0.389,0.623,0.455,0.405,0.293,0.345,0.297,0.237,0.979,0.935,0.582,0.947,0.609
NCI-H1666,0.878,0.788,0.753,0.824,0.791,0.612,0.633,0.538,0.662,0.486,0.839,0.84,0.701,0.824,0.744,0.884,0.805,0.745,0.879,0.612
NCI-H1734,0.39,0.459,0.395,0.36,0.232,0.284,0.247,0.263,0.206,0.207,0.464,0.455,0.436,0.471,0.484,0.988,0.86,0.463,0.379,0.346
NCI-H1755,0.365,0.37,0.438,0.638,0.397,0.639,0.531,0.512,0.663,0.488,0.511,0.408,0.407,0.567,0.442,1.03,0.952,0.739,1.08,0.415
NCI-H1915,0.54,0.46,0.449,0.553,0.513,0.558,0.44,,0.533,0.385,0.356,0.276,0.294,0.274,0.261,1.11,0.913,0.433,1.09,0.97
NCI-H1975,0.323,0.283,0.235,0.206,0.2,1.11,0.684,0.412,0.293,0.23,0.497,0.314,0.359,0.399,0.295,0.403,0.338,0.288,0.267,0.233
NCI-H1993,0.612,0.65,0.518,0.58,0.585,0.593,0.582,0.53,0.614,0.573,0.663,0.48,0.697,0.868,0.467,1.26,1.1,,1.14,0.778
NCI-H2009,1.12,0.962,0.767,0.675,0.211,0.891,0.737,0.497,0.659,0.297,0.325,0.212,0.304,0.248,0.141,1.04,0.928,0.876,0.609,0.339
NCI-H2023,0.232,0.2,0.138,0.18,0.149,0.462,0.319,0.242,0.283,0.169,0.619,0.378,0.577,0.617,0.426,1.08,0.932,0.749,0.646,0.273
NCI-H2085,0.913,0.881,0.753,0.877,0.495,0.9,0.804,0.688,0.609,0.529,0.246,0.246,0.222,0.239,0.281,1.12,0.971,0.828,1.06,0.683
NCI-H2087,0.722,0.667,0.511,0.548,0.216,0.255,0.338,0.215,0.225,0.155,0.93,0.798,0.921,0.891,0.743,0.977,0.747,0.512,0.662,0.321
NCI-H2126,0.635,0.487,0.592,0.453,0.348,0.911,0.807,0.727,0.791,0.479,0.575,0.6,0.55,0.548,0.483,1.19,1.02,0.953,1.11,0.809
NCI-H2228,0.403,0.293,,0.264,0.152,0.289,0.168,0.229,0.246,0.195,0.543,0.403,0.553,0.544,0.337,1.17,0.924,0.46,0.837,0.354
NCI-H2347,0.459,0.466,0.402,0.361,0.335,0.632,0.482,0.51,0.405,0.309,0.345,0.319,0.332,0.306,0.297,0.768,0.925,0.594,0.582,0.542
NCI-H2405,1.14,0.913,0.795,1.09,0.681,0.758,0.81,0.704,0.724,0.485,0.253,0.19,0.218,0.215,0.219,1.03,0.801,0.778,0.969,0.565
